Data published in ChEMBL document CHEMBL4325911, “Discovery of N-(piperidin-3-yl)-N-(pyridin-2-yl)piperidine/piperazine-1-carboxamides as small molecule inhibitors of PCSK9” (Bioorg Med Chem Lett, 2018).

What was measured:
80S Ribosome [1] = assay: Binding affinity to 80S ribosome in human HeLa cells lysates using human full length PCSK9 encoding mRNAs assessed as inhibition of PCSK9 mRNA translation after 45 mins by Steady-Glo luciferase reporter gene assay; type: cell-free
[2] = Lipophilicity, log D of the compound by shake flask method; type: physicochemical; conditions: octanol/water
[3] = Permeability in RRCK cells measured up to 1.5 hrs; type: ADME, cell-based, Canis lupus familiaris, MDCKII-LE; conditions: dog, MDCK; read-out: permeability
80S Ribosome [4] = assay: Binding affinity to 80S ribosome in human HuH7 cells harboring human PCSK9 (1 to 152 residues)-proLuc assessed as inhibition of PCSK9 mRNA translation after overnight incubation by luciferase reporter gene assay; type: cell-based; conditions: huh-7
[5] = Intrinsic clearance in human liver microsomes; type: ADME, Microsome; conditions: read-out: CLH
[6] = molecular target: Voltage-gated inwardly rectifying potassium channel KCNH2 (Homo sapiens, UniProt Q12809); assay: Binding affinity to human ERG by dofetilide fluorescence polarization binding assay
Bone marrow cell = assay: Cytotoxicity against rat bone marrow cells assessed as reduction in cell viability after 72 hrs by celltiter glo assay; type: cell-based

Sequence of Voltage-gated inwardly rectifying potassium channel KCNH2 (Q12809 whole entry): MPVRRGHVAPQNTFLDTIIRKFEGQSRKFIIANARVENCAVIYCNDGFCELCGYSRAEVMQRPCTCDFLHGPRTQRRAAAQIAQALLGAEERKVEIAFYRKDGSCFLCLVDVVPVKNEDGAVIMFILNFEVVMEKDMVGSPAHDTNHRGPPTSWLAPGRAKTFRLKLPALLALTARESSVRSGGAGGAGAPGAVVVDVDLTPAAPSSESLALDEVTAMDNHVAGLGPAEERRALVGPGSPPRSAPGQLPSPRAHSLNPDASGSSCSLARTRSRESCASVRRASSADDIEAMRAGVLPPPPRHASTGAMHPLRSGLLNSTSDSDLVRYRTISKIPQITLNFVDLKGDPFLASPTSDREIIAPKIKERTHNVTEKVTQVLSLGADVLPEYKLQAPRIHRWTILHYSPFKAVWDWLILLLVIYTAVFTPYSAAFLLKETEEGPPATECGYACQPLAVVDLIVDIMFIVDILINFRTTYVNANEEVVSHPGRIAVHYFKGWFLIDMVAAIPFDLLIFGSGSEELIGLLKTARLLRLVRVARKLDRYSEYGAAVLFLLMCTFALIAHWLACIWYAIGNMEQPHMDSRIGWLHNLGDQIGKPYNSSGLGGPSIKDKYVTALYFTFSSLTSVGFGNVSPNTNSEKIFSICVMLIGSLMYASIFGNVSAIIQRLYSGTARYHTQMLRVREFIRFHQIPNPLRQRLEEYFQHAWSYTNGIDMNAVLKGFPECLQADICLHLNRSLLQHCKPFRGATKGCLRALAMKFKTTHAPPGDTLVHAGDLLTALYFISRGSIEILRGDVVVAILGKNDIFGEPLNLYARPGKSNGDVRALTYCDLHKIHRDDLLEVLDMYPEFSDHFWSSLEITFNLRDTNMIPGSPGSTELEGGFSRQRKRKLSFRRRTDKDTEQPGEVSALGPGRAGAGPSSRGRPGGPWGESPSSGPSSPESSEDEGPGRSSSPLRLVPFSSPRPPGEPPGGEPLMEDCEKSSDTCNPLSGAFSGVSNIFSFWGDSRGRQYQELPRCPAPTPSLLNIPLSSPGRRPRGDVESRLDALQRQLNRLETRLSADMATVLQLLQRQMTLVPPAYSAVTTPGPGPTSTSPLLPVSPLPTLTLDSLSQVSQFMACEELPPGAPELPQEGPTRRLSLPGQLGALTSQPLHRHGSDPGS

Work on `COc1ccc(CCC(=O)N(c2nccc3ccccc23)[C@@H]2CCCNC2)cc1` yielded an IC50 (80S Ribosome [1]) of 8.04 µM and a logD [2] of 1.

Work on `O=C(c1ccc(-c2ccccc2)cc1)N(c1nccc2ccccc12)[C@@H]1CCCNC1` yielded a Papp at 1.5 h [3] of 0.3 ×10⁻⁶ cm/s.

Work on `O=C(N1CCC(c2cnn3cccnc23)CC1)N(c1ncccc1Cl)[C@@H]1CCCNC1` yielded an IC50 (80S Ribosome [4]) greater than 20 µM, a logD [2] of -0.5 and a microsomal CLint [5] of less than 8 µL/min/mg. For the same compound, the Papp at 1.5 h [3] was 1.8 ×10⁻⁶ cm/s.

For `O=C(N1CCC(c2ccccc2)CC1)N(c1ncccc1Cl)[C@@H]1CCCNC1`, the IC50 (80S Ribosome [4]) was 2.21 µM, the IC50 (80S Ribosome [1]) was 2.08 µM and the logD [2] was 0.9. For the same compound, the microsomal CLint [5] was less than 9.3 µL/min/mg, the Papp at 1.5 h [3] was 12.8 ×10⁻⁶ cm/s and the Ki [6] was 14.3 µM.

Work on `O=C(N1CCN(c2ccccc2)CC1)N(c1nccc2ccccc12)[C@@H]1CCCNC1` yielded an IC50 (80S Ribosome [4]) of 12.6 µM, a logD [2] of 0.8 and a microsomal CLint [5] of 13.8 µL/min/mg. For the same compound, the Papp at 1.5 h [3] was 5.8 ×10⁻⁶ cm/s and the Ki [6] was 9.2 µM.

`Cc1nccnc1N(C(=O)N1CCC(c2ccccc2)CC1)[C@@H]1CCCNC1` gave an IC50 (80S Ribosome [1]) of 3.63 µM, a logD [2] of 0.3 and a microsomal CLint [5] of less than 8 µL/min/mg. For the same compound, the IC50 (Bone marrow cell) was greater than 100 µM, the Papp at 1.5 h [3] was 11.5 ×10⁻⁶ cm/s and the Ki [6] was 24.8 µM.

`Cc1ccc2c(N3CCN(C(=O)N(c4nccc5ccccc45)[C@@H]4CCCNC4)CC3)noc2c1` gave an IC50 (80S Ribosome [4]) of 3.5 µM, a logD [2] of 1.6 and a microsomal CLint [5] of 12.9 µL/min/mg. The IC50 (Bone marrow cell) was 31.1 µM, the Papp at 1.5 h [3] was 8.9 ×10⁻⁶ cm/s and the Ki [6] was 1.2 µM.

`Cc1cccnc1N(C(=O)N1CCC(c2ccccc2F)CC1)[C@@H]1CCCNC1` gave an IC50 (80S Ribosome [1]) of 4.38 µM, a logD [2] of 1 and a microsomal CLint [5] of less than 8 µL/min/mg. For the same compound, the IC50 (Bone marrow cell) was 46.2 µM, the Papp at 1.5 h [3] was 9.5 ×10⁻⁶ cm/s and the Ki [6] was 9.8 µM.

In the case of `Cc1cnc2c(c1)nnn2-c1ccc(CCC(=O)N(c2ncccc2Cl)[C@@H]2CCCNC2)nc1`, the IC50 (80S Ribosome [4]) is reported as 0.85 µM, the IC50 (80S Ribosome [1]) is reported as 2.27 µM and the logD [2] is reported as 0.7. The microsomal CLint [5] was 9.3 µL/min/mg, the IC50 (Bone marrow cell) was 27.1 µM and the Papp at 1.5 h [3] was 6.2 ×10⁻⁶ cm/s. It also gave a Ki [6] of 5.9 µM.

`O=C(N1CCC(c2ccccc2)CC1)N(c1nccc2ccccc12)[C@@H]1CCCNC1` showed an IC50 (80S Ribosome [4]) of 1.73 µM, an IC50 (80S Ribosome [1]) of 1.54 µM and a logD [2] of 1.4. For the same compound, the microsomal CLint [5] was 13.9 µL/min/mg, the IC50 (Bone marrow cell) was 12.7 µM and the Papp at 1.5 h [3] was 3.9 ×10⁻⁶ cm/s. It also gave a Ki [6] of 4.1 µM.

For `Cc1cccnc1N(C(=O)N1CCC(c2cnn3cccnc23)CC1)[C@@H]1CCCNC1`, the IC50 (80S Ribosome [1]) was 0.92 µM, the logD [2] was 0.2 and the microsomal CLint [5] was less than 8 µL/min/mg. For the same compound, the IC50 (Bone marrow cell) was 10.1 µM, the Papp at 1.5 h [3] was 1.8 ×10⁻⁶ cm/s and the Ki [6] was greater than 40 µM.

For `Cn1ccc2ccnc(N(C(=O)N3CCC(c4ccccc4)CC3)[C@@H]3CCCNC3)c21`, the IC50 (80S Ribosome [1]) was 0.5 µM, the logD [2] was 1.4 and the microsomal CLint [5] was 11.8 µL/min/mg. It also gave an IC50 (Bone marrow cell) of 11.7 µM, a Papp at 1.5 h [3] of 5.2 ×10⁻⁶ cm/s and a Ki [6] of 5.7 µM.

For `Cc1cccnc1N(C(=O)N1CCC(c2ccccc2)CC1)[C@@H]1CCCNC1`, the IC50 (80S Ribosome [4]) was 2.05 µM, the IC50 (80S Ribosome [1]) was 2.33 µM and the logD [2] was 0.7. The microsomal CLint [5] was less than 8 µL/min/mg, the Papp at 1.5 h [3] was 8.7 ×10⁻⁶ cm/s and the Ki [6] was greater than 25 µM.
